Source: patent US9914739B2, “6H-furo[2,3-E]indole compounds for the treatment of hepatitis C” (BRISTOL-MYERS SQUIBB COMPANY, priority 2014, dated 2018)

Tests used:
[1] = system: genotype 1b (Con-1) HCV replicon; experiment: HCV replicon luciferase assay, genotype 1b; format: cell-based; conditions: Hepatitis C virus, Huh-7, 72 h, Huh-7 cells with genotype 1b HCV replicon, Renilla luciferase, 3 days incubation; class symbol
Description: The cell lines used to evaluate compounds consist of a human hepatocyte derived cell line (Huh-7) that constitutively expresses a genotype 1b (Con-1) HCV replicon or a genotype 1b (Con-1) HCV replicon with an asparagine replacing the cysteine at amino acid 316, or a genotype 2a (JFH-1) replicon, containing a Renilla luciferase reporter gene. These cells were maintained in Dulbecco's modified Eagle medium (DMEM) containing 10% FBS, 100 U/mL penicillin/streptomycin and 1.0 mg/mL G418.
To evaluate compound efficacy, titrated compounds were transferred to sterile 384-well tissue culture treated plates, and the plates were seeded with HCV replicon cells (50 μL at a density of 2.4×10^3 cells/well) in DMEM containing 4% FBS (final DMSO concentration at 0.5%). After 3 days incubation at 37° C., cells were analyzed for Renilla Luciferase activity using the EnduRen substrate (Promega cat #E6485) according to the manufacturer's directions. Briefly, the EnduRen substrate was diluted in DMEM and then added to the plates to a final concentration of 7.5 μM. The plates were incubated for at least 1 h at 37° C. then read on a Viewlux Imager (PerkinElmer) using a luminescence program. The 50% effective concentration (EC50) was calculated using the four-parameter logistic formula noted above.

[2] = system: HCV; conditions: cited from earlier work

Compound	EC50 [1] [µM]	also measured
CCc1c[nH]c2c(OC(C)C)cc3c(C(=O)NC)c(-c4ccc(F)cc4)oc3c12 [Compound 6003]	> 1	
CCN(C)C(=O)c1c(-c2ccc(F)cc2)oc2c1cc(OC(C)C)c1c2ccn1CC [Compound 6004]	> 1	
CCc1cn(CC)c2c(OC(C)C)cc3c(C(=O)NC)c(-c4ccc(F)cc4)oc3c12 [Compound 6005]	> 1	
CCN(CC(C)(C)C)C(=O)c1cccc(-c2cc3c(C(=O)NC)c(-c4ccc(F)cc4)oc3c3ccn(CC)c23)c1 [Compound 6007]	0.1 to 1	
CNC(=O)c1c(-c2ccc(F)cc2)oc2cc(N(CCO)S(C)(=O)=O)c(C3CC3)cc12 [HCV-796]		hepatic toxicity ([2]; extended dosing of the combination regimens): hepatic toxicity observed
alpha-interferon and ribavirin		sustained efficacy ([2]; patients, combination therapy): 40 % of patients
pegylated alpha-interferon		efficacy as monotherapy compared with unmodified alpha-interferon ([2]; recent clinical results, monotherapy): superior to unmodified alpha-interferon
